Source: patent US20220364056A1, “SHORT-CHAIN FATTY ACID PENTANOATE AS ENHANCER FOR CELLULAR THERAPY AND ANTI-TUMOR THERAPY” (PHILIPPS-UNIVERSITÄT MARBURG, priority 2019, published 2022)

System: human CD8+ T lymphocytes
Assay: human CD8+ T lymphocytes differentiated into CTLs, flow cytometry
Type: cell-based
Method: (A and B) CD8^+ T cells isolated from spleens and LNs were polarized under Tc17-inducing conditions and treated with pentanoate for 3 days. Representative contour plots (A) and bar graphs (B) indicate the frequency of IL-17^+ and IFN-γ+ cells. Three similar experiments were performed. (C and D) CD8^+ T cells isolated from spleens and LNs were polarized under Tc9-inducing conditions and treated with pentanoate for 3 days. Representative contour plots (C) and bar graphs (D) are showing the frequency of IL-9^+ and IFN-γ+ cells. Three similar experiments were performed. (E and F) The expression of granzyme B, IFN-γ and Eomes in pentanoate-treated human CTLs was analysed by flow cytometry. Five independent experiments were performed (E). For Eomes, mean fluorescence intensity (MFI) values are shown (F, n=3).
(A) CD8^+ T cells isolated from peripheral blood of healthy donors were differentiated into CTLs in presence or absence of indicated HDACi. Representative contour plots and dot plots indicate the frequency of TNF-α+ and IFN-γ^+ cells. Data points in the graphs represent individual donors (n=4, performed in 4 independent experiments) (B-G) Phenotyping of pentanoate-treated ROR1-specific CD8^+ CAR T cells (CARROR1 T cells). (B) Experimental setup for the functional analysis is shown. (C) The cytokine secretion (IFN-γ and TNF-α) was analysed in supernatants of pentanoate-treated CARROR1 T cells by ELISA. (D) The surface expression of CD25 was measured by flow cytometry. (E) The secretion of IL-2 was detected in supernatants of CARROR1 T cells by ELISA. (F) Proliferation of CARROR1 T cells was determined by CFSE labelling. CARROR1 T cells pre-treated with pentanoate were stained with CFSE and subsequently co-cultured with […] cells in the absence of pentanoate. CD8^+ T cells without the CAR construct were used as mock control cells. […] The percentage of lysed target cells was determined in 1 hour intervals (effector-to-target cell (E:T) ratio=2.5:1). […]

`CCCCC(=O)O` [pentanoate] was tested, and the “expression of granzyme B, IFN-γ and Eomes” value was “enhancing the expression” and the “expression of TNF-α and IFN-γ” value (healthy donors) was “enhancing the expression”.
